Source: patent publication US12655101B2, “Small molecules with antibacterial activity” (NEW MEXICO TECH UNIVERSITY RESEARCH PARK CORPORATION, priority 2021, dated 2026)

How the values were obtained:
Format in all cases: cell-based
red blood cells = test: Red blood cell lysis capacity
Description: Diluted red blood cells were aliquoted into clear tissue culture media−/+addition of 40% human serum and added either 2 μL or 40 μL of cell lysis buffer (LB), 50 μM, 40 μM, 20 μM, 15 μM, 10 μM, or 5 μM Compound 14. The samples were agitated by vortex and spun by centrifuge.

[1] = test system: A. baumannii ATCC BAA-1797; test: DNA degradation (agarose gel), drug-resistant strain; settings: drug-resistant ATCC BAA-1797; 10 μg/mL ciprofloxacin, 100 μM Compound 25; 5 hours
A. baumannii ATCC 15151 = test: DNA degradation (agarose gel), drug-sensitive strain; settings: 1.5% H2O2, 10 μg/mL ciprofloxacin, 100 μM Compound 25; 3 hours
E. coli = test: Filamentation with ciprofloxacin and Compound 25 on E. coli; settings: for cell morphology and growth: 16 hours
Description: E. coli: E. coli was grown from a glycerol stock by placing a small volume of cells onto a MHA plate. The MHA plate was incubated overnight at 37° C. A single colony was subsequently used to inoculate MHB to obtain a bacterial broth suspension. The MHB broth suspension was grown at 37° C. on a rotary shaking incubator (100 rpm) for 12 hours. The bacterial cell concentration was adjusted to ˜1×10^7 CFU/mL in MHB using OD at 595 nm. […] The culture tubes were incubated for 16 hours at 37° C. After 16 hours incubation, took 3 μL of cells from each well and plated on microscope slide to observe the following: […]

[2] = test system: A. baumannii ATCC BAA-1797; test: Synergy of gentamicin and Compound 25, colony counts; settings: 18 hours
Description: Cells were cultured using methods described above. 500 μL of the adjusted bacterial cell suspensions were placed into borosilicate glass tubes, where the cell suspensions were treated with 100 μg/mL gentamicin, 2 μM Compound 25, or a combination of 100 μg/mL gentamicin plus 2 μM Compound 25. The culture tubes were incubated for 18 hours at 37° C. Colony counts were performed by 10-fold serially diluting the samples into fresh MHB and drip-streaking 10 μL from each dilution series onto MHA. The plates were incubated at 37° C. for 18 hours before the CFU/mL were determined by visual cell counts.
500 μL aliquots of the adjusted bacterial cell suspensions were placed into borosilicate glass tubes, where the cell suspensions were treated with 50 μg/mL gentamicin, 2 μM Compound 25, or a combination of 50 μg/mL gentamicin plus 2 μM Compound 25. The culture tubes were incubated for 18 hours at 37° C.

[3] = test system: A. baumannii ATCC BAA-1797 in a culture of HeLa cells; test: Selective killing of A. baumannii in a culture of HeLa cells; settings: 60 μM Compound 26
Description: In a separate experiment, the ability of […] to selectively kill A. baumannii ATCC BAA-1797 in a culture of HeLa cells in 40% FBS was studied. Cells were trypsinized, counted (cells/mL) using a hemocytometer, and plated (2×10^5 HeLa cells/100 μL) in tissue culture-treated 24-well plate in DMEM+1% penicillin/streptomycin (P/S)+10% FBS. Cells were adhered overnight at 37° C. in a humidified incubator with 5% CO2. Media was replaced the following day with DMEM+40% or 50% FBS. Selected wells were treated with 60 μM Compound 26, which included HeLa only and HeLa plus 10,000 A. baumannii ATCC BAA-1797—that had been previously grown in MHB for 12 hours in 37° C.—in the appropriate wells. Cells were incubated further for 18 hours at 37° C. 20% v/v MTT reagent (5 mg/mL stock) was added, and the samples were incubated for 10 minutes to observe viable bacteria. Plates were counted after a visual viability assessment.
Cells were trypsinized, counted (cells/mL) using a hemocytometer, and plated (2×10^5 HeLa cells/100 μL) in tissue culture-treated 24-well plate in DMEM+1% penicillin/streptomycin (P/S)+10% FBS. Cells were adhered overnight at 37° C. in a humidified incubator with 5% CO2. Media was replaced the following day with DMEM+40% or 50% FBS. […] Plates were counted after visual viability assessment.

E. coli pUC18 = test: Nitrocefin β-lactamase assay (outer membrane disruption); settings: 10 μM melittin; 10 μg/mL PME; 6, 12, 24 μM Compound 25 and 26; 100 μM Compound 27; 50 μM Compound 15; 30 minutes
Description: E. coli pUC18 was grown from a glycerol stock by placing a small volume of cells onto a MHA plate. The MHA plate was incubated overnight at 37° C. A single colony was subsequently used to inoculate MHB+100 μg/mL ampicillin to obtain a bacterial broth suspension. The MHB broth suspension was grown at 37° C. on a rotary shaking incubator (100 rpm) for 12 hours. The cells were washed 3× by centrifuging and washing with 1 mL medium 200. The washed bacterial cell concentration was adjusted to ˜1×10^7 CFU/mL in medium 200 using OD at 595 nm. The cells were treated cells with 10 μM melittin; 6, 12, 24 μM Compound 25; 6 μM, 12 μM, 24 μM Compound 26; 100 μM Compound 27; 50 μM Compound 15; and 10 μg/mL PME. The cells were incubated at 37° C. for 30 minutes; added 50 μM nitrocefin and incubated 10 minutes at 37° C.
pUC18 E. coli carry an ampicillin resistance gene and produce β-lactamase.

[4] = 20 μM Compound 25+25 ng/mL ciprofloxacin

With `Nc1cccc2[nH]cc(/C=N/Nc3ccc(Cl)cc3)c12` [Compound 14, (E)-3-((2-(4-chlorophenyl)hydrazineylidene)methyl)-1H-indol-4-amine] the “red blood cell lysis” value (red blood cells; 40% additional human serum, 50 μM Compound 14) was “did not lyse cells” and the “red blood cell lysis” value (red blood cells; no additional serum, 40 μM Compound 14) was “lysed some red blood cells”.

For `Brc1ccc(N/N=C/c2c[nH]c3cccc(OCc4ccccc4)c23)cc1.Cl` [Compound 25, (E)-2-((4-(benzyloxy)-1H-indol-3-yl)methylene)-1-(4-bromophenyl)hydrazin-1-ium chloride], the “ds DNA damage” value [1] was “Neither Ciprofloxacin Nor Compound 25 Caused ds DNA Damage”, the DNA degradation (A. baumannii ATCC 15151) was “did not degrade DNA” and the “inhibition of ciprofloxacin-induced filamentation” value (E. coli; [4]) was “only slightly inhibited”. For the same compound, the “cell morphology and growth” value (E. coli; [4]) was “elongated in morphology and growth inhibition was observed”, the “cell morphology and growth” value (E. coli; single agent: 25 ng/mL ciprofloxacin or 20 μM Compound 25) was “morphologically normal and growth inhibition was observed” and the “synergy, full cell death” value ([2]; 50 μg/mL gentamicin+2 μM Compound 25) was 4 orders of magnitude. For the same compound, the “synergy, full cell death” value ([2]; 100 μg/mL gentamicin+2 μM Compound 25) was 8 orders of magnitude.

In the case of `Cl.Clc1ccc(N/N=C/c2c[nH]c3cccc(OCc4ccccc4)c23)cc1` [Compound 26, (E)-2-((4-(benzyloxy)-1H-indol-3-yl)methylene)-1-(4-chlorophenyl)hydrazin-1-ium], the “kill of A. baumannii ATCC BAA-1797 in HeLa co-culture” value ([3]; 40% FBS and 50% FBS) was 4 logs and the “selective eradication of A. baumannii from HeLa cells” value ([3]; 18 hours, 40% or 50% FBS) was “selectively eradicated A. baumannii ATCC BAA-1797 from HeLa cells, leaving HeLa cells unharmed”.

In the case of `Cl.Fc1ccc(N/N=C/c2c[nH]c3cccc(OCc4ccccc4)c23)cc1` [Compound 27, (E)-2-((4-(benzyloxy)-1H-indol-3-yl)methylene)-1-(4-fluorophenyl)hydrazin-1-ium], the “outer membrane disruption (β-lactamase leakage, nitrocefin colour)” value (E. coli pUC18) was “caused outer membrane disruption”.
